What was measured:
hEPO = hEPO expression in mouse serum after intramuscular injection of LNPs containing hEPO mRNA (ELISA); type: in vivo, Balb/c ByJ mice; details: 1 μg-dose of hEPO mRNA IM in quadriceps, serum 6 hours post-injection; LNPs lipid/DSPC/Chol/DMG-PEG2000 50:10:3.5:1.5, N/P 12
Protocol: LNPs comprising lipidic compound of formula (III) (or DOG-Cleave) or one of the compounds (VI), (XVII), (XIX), (XXI), (XXII), (XXIV), (XXVII) and (XXVIII), DSPC, Chol and DMG-PEG2000 at a molar ratio of 50:10:3.5:1.5, and hEPO mRNA at a N/P charge ratio=12 (unless otherwise specified in the table), were prepared as described in Example 30 by using the NanoassemblR. An Aqueous/Ethanolic phase volume ratio of 3/1 and at total flow rate of 4 mL/min was used. LNPs were prepared at a concentration of 60 μg of hEPO mRNA/mL in PBS 1×.
Four 8-week-old mice per group were injected on DO via intramuscular route in the quadriceps with 1 μg-dose of hEPO mRNA formulated in LNPs Lip. (IV)/DSPC under a final volume of 50 μL. As negative control, 4 mice received the same volume of PBS (for accelerated stability study and lipid screening) or Citrate Buffer (lipid screening)
Blood samples were collected 6 hours post-injection to measure the expression of hEPO in serum using a specific ELISA assay.
Blood samples were collected 6 hours post-injection by carotid section under deep anesthesia with Imalgene/Rompun (1.6 mg of Ketamine/0.32 mg of Xylazine) in serum-separation tubes (BD Vacutainer #BD367957). Sera were aliquoted and stored at −20° C. until hEPO determination.
hEPO expression in mouse sera was assessed using human Erythropoietin Quantikine IVD ELISA kit (R&D Systems #DEP00). The ELISA was performed following supplier's instructions. Briefly, sera were added in pre-coated plates and incubated for one hour at room temperature under orbital shaking. After sera removal, Erythropoietin conjugate was added for one hour at room temperature under orbital shaking. Plates were washed and Substrate solution was added for 20-25 minutes at room temperature before stopping the reaction with Stop solution. Absorbance at 450 nm with 650 nm signal subtraction was determined in a microplate reader. Data were analyzed using SoftmaxPro software and expressed in log 10 of the concentration of hEPO measured in mouse sera in pg/mL.

[1] = UHPLC-CAD-MS analysis of cleavage of DOG-Cleave during LNP formulation process; type: physicochemical; details: from extracted ion chromatograms, same response factor assumed

CCCCCCCC/C=C\CCCCCCCCOCC(COCCOCCOCCOCCOC(=O)CNCCOC(=O)CNCCOC)OCCCCCCCC/C=C\CCCCCCCC.O=C(O)C(F)(F)F.O=C(O)C(F)(F)F (centres unmarked) [Compound (III), 2-[[2-[2-[2-[2-[2-[2,3-bis[(Z)-octadec-9-enoxy]propoxy]ethoxy]ethoxy]ethoxy]ethoxy]-2-oxo-ethyl]amino]ethyl 2-(2-methoxyethylamino)acetate;2,2,2-trifluoroacetic Acid]
EPO secretion IM (hEPO): 1.5 Log10 pg/ml | Relative amount in DOG-Cleave EtOH solution [1]: 75% | Relative amount in Final LNP [1]: 25% | Relative amount in LNP after 1st dialysis [1]: 59%

CCCCCCCC/C=C\CCCCCCCCOCC(COCCOCCOCCOCCOC(=O)CNCCOC(=O)[C@@H](N)COC)OCCCCCCCC/C=C\CCCCCCCC.Cl (stereo partly drawn) [Compound (VI), 2-[[2-[2-[2-[2-[2-[2,3-bis[(Z)-octadec-9-enoxy]propoxy]ethoxy]ethoxy]ethoxy]ethoxy]-2-oxoethyl]amino]ethyl (2S)-2-amino-3-methoxy-propanoate; Hydrochloride]
EPO secretion IM (hEPO): 2.1 Log10 pg/ml

CCCCCCCCC=CCCCCCCCCOCC(OCCCCCCCCC=CCCCCCCCC)C(=O)N(CCCCCCCC)CCOCCOCCOCCOCCOC(=O)CNCCOC(=O)CNCCOC.O=C(O)C(F)(F)F (centres unmarked) [Compound (XIX), 2-[[2-[2-[2-[2-[2-[2-[2,3-bis[(Z)-octadec-9-enoxy]propanoyl-octylamino]ethoxy]ethoxy]ethoxy]ethoxy]ethoxy]-2-oxo-ethyl]amino]ethyl 2-(2-methoxyethylamino)acetate;2,2,2-trifluoroacetic Acid]
EPO secretion IM (hEPO): 2.4 Log10 pg/ml

CCCCCCC(CCCC)C(=O)OCCCCCCOCC(COCCOCCOCCOCCOC(=O)CNCCOC(=O)CNCCOC)OCCCCCCOC(=O)C(CCCC)CCCCCC (centres unmarked) [Compound (XXII), 6-[2-[6-(2-butyloctanoyloxy)hexoxy]-3-[2-[2-[2-[2-[2-[2-[2-(2-methoxyethylamino)acetyl]oxyethylamino]acetyl]oxyethoxy]ethoxy]ethoxy]ethoxy]propoxy]hexyl 2-butyloctanoate;2,2,2-trifluoroacetic Acid]
EPO secretion IM (hEPO): 2.5 Log10 pg/ml

CCCCCCCCC=CCCCCCCCCOCC(OCCCCCCCCC=CCCCCCCCC)C(CCCCCCCCCCCC)OC(=O)NCCOCCOCCOCCOC(=O)CNCCOC(=O)CNCCOC.O=C(O)C(F)(F)F (centres unmarked) [Compound (XXIV), 2-[[2-[2-[2-[2-[2-[1-[1,2-bis[(Z)-octadec-9-enoxy]ethyl]tridecoxycarbonylamino]ethoxy]ethoxy]ethoxy]ethoxy]-2-oxo-ethyl]amino]ethyl 2-(2-methoxyethylamino)acetate;2,2,2-trifluoroacetic Acid]
EPO secretion IM (hEPO): 1.9 Log10 pg/ml

CCCCCCCCCOC(=O)CCCCCCCN(CCCCCCCC(=O)OC(CCCCCCCC)CCCCCCCC)C(=O)CCOCCOCCOCCOC(=O)CNCCOC(=O)CNCCOC [Compound (XXVII), nonyl 8-[3-[2-[2-[2-[2-[2-[2-(2-methoxyethylamino)acetyl]oxyethylamino]acetyl]oxyethoxy]ethoxy]ethoxy]propanoyl-[8-(1-octylnonoxy)-8-oxo-octyl]amino]octanoate;2,2,2-trifluoroacetic Acid]
EPO secretion IM (hEPO): 1.9 Log10 pg/ml

CCCCCCCCC(CCCCCC)C(=O)OCCCCCCOCC(OCCCCCCOC(=O)C(CCCCCC)CCCCCCCC)C(=O)N(CCCCCCCC)CCOCCOCCOCCOCCOC(=O)CNCCOC(=O)CNCCOC (centres unmarked) [Compound (XXVIII), 6-[2-[6-(2-hexyldecanoyloxy)hexoxy]-3-[2-[2-[2-[2-[2-[2-[2-[2-(2-methoxyethylamino)acetyl]oxyethylamino]acetyl]oxyethoxy]ethoxy]ethoxy]ethoxy]ethyl-octyl-amino]-3-oxopropoxy]hexyl 2-hexyldecanoate;2,2,2-trifluoroacetic acid]
EPO secretion IM (hEPO): 2.3 Log10 pg/ml

[(Z)-non-2-enyl] 8-[3-[2-[2-[2-[2-[2-[2-[2-(2-methoxyethylamino)acetyl]oxyethylamino]acetyl]oxyethoxy]ethoxy]ethoxy]ethoxy]-2-[8-[(Z)-non-2-enoxy]-8-oxo-octoxy]propoxy]octanoate;2,2,2-trifluoroacetic Acid [Compound (XVII)]
EPO secretion IM (hEPO): 2.4 Log10 pg/ml

From patent US20230293447A1, “CLEAVABLE LIPIDIC COMPOUNDS, COMPOSITIONS CONTAINING THEREOF, AND USES THEREOF” (priority 2020, published 2023)
